Entries after “also recorded” stand apart in the source; their conditions may differ.
Key:
Format in all cases: cell-based, human
AR mRNA [1] = assay: AR mRNA expression by qPCR, LAPC4; settings: for AR mRNA levels (qPCR): LAPC4, 4 days
Method: (§1) Messenger RNA expression analysis: Total RNA was extracted from cells using TRIzol Reagent (Invitrogen, Carlsbad, Calif.) and cDNA was prepared from total RNA using the High Capacity cDNA Reverse Transcription Kit (Applied Biosystems, Foster City, Calif.). Quantititive PCR was performed for AR expression using an Applied Biosystems 7900HT Fast Real-Time PCR System (Carlsbad, Calif.) and QuantiTect Primers Assays (Qiagen Inc., Valencia, Calif.) for AR and GAPDH mRNA.

[2] = system: PC3 prostate cancer cell line; assay: Growth of androgen-independent PC3 cells; settings: 4 days, data not shown
Method: (§2) Cell proliferation and viability assays: Cell numbers were determined using a hemacytometer. Relative cell growth changes were determined using cells plated in 96-well tissue culture plates using the CyQUANT NF Cell Proliferation Assay Kit (Invitrogen) according to manufacturer's instructions. Cell viability was measured using trypan blue exclusion and quantified using light microscopy and hemacytometry. Additionally, cell viability was measured by propidium iodide exclusion using flow cytometry (FACScan; BD Biosciences, San Jose, Calif.) after VE and ATQ treatment.

[3] = system: LAPC4 prostate cancer cells; assay: CyQUANT cell proliferation assay, LAPC4; settings: 10 to 50 μM, 4 days
Method: (§3) Cell culture and treatment protocols: The LNCaP prostate cancer cells used in these studies were acquired from American Type Culture Collection (Manassas, Va.). All cell lines were maintained in Dulbecco's modified Eagle's medium (DMEM; Invitrogen, Carlsbad, Calif.) containing 5% heat-inactivated fetal calf serum (FCS; Sigma, St. Louis, Mo.) with streptomycin-penicillin antibiotics (designated DMEM/FCS) in a 5% CO2 incubator at 37° C. LAPC4 prostate cancer cells adapted to growth in DMEM and 5% FCS were acquired from George Wilding (University of Wisconsin Paul P. Carbone Comprehensive Cancer Center). For experiments evaluating androgenic responses, cells were cultured in DMEM containing 4% charcoal-stripped FCS and 1% unstripped FCS (designated DMEM/CSS). […]
as §2

AR mRNA [4] = assay: AR mRNA expression by qPCR, LNCaP; settings: 4 days
Method: as §1

[5] = system: androgen-sensitive MMTV promoter; assay: Promoter activation assay (MMTV/luciferase) in LNCaP; settings: 30 μM, 48 hours
Method: Promoter activation assay: LNCaP and LAPC4 prostate carcinoma cell lines were cultured in 12- or 24-well cell culture plates (Costar) in DMEM/CSS 2 to 3 days before transfection. Androgen-induced transcriptional activation was determined using a reporter construct with an MMTV promoter that regulates the expression of luciferase (Thompson T A et al., In Vitro Cell. Dev. Biol. 1993, 29A:165-170). LNCaP cells were transfected using the calcium phosphate precipitation method with an MMTV/luciferase plasmid. LAPC4 cells were transfected with an MMTV/luciferase plasmid using the FuGENE 6 Transfection Reagent (Roche Applied Science), according to the manufacturer's instructions. Twenty-four hours after transfection, cells were treated with R1881 with or without test reagents at the specified concentrations. Cell extracts were acquired 24 to 48 hours after treatment in 100 μL of Cell Culture Lysis Reagent (Promega, Madison, Wis.). Luciferase activity was measured using the Luciferase Assay Substrate (Promega, Madison, Wis.) according to instructions and read on a TD-20/20 Luminometer (Turner Designs, Sunnyvale, Calif.).

LNCaP cells = assay: LNCaP viability by propidium iodide exclusion and flow cytometry; settings: 30 μM, 4 days
Method: as §3, §2

PSA = assay: Prostate specific antigen analysis, LNCaP medium; settings: for R1881-induced PSA release / PSA levels in medium: 10 to 40 μM
Method: Prostate specific antigen analysis: LNCaP cells were cultured in 96-well plates (Costar) at 5,000 cells per well in DMEM/CSS 1 day before treatment. Forty-eight hours after treatment, media levels of PSA released from LNCaP cells were measured using a PSA Enzyme Immunoassay Test Kit (BioCheck, Inc., Foster City, Calif.) according to manufacturer's instructions supplied with the kit. PSA levels were normalized to cell numbers as determined using the CyQUANT NF Cell Proliferation Assay Kit (Invitrogen), as described previously.

AR protein [6] = assay: Immunoblot analysis of AR protein, LAPC4
Method: (§4) Immunoblot analysis: LNCaP or LAPC4 prostate cancer cells were plated at a density of 1×10^6 cells per 100 mm cell culture plate in 10 ml of DMEM/CSS and maintained in incubators at 37° C. in 5% CO2. […] Cell extracts were stored at −80° C. until analysis. Total protein (25 μg) from cell extracts were electrophoresed on 7.5% SDS-polyacrylamide gels and transferred to Immobilon-P membranes (Millipore Corp., Bedford, Mass.) using a GENIE wet transfer system (Idea Scientific, Minneapolis, Minn.). Membranes were blocked in Tris-buffered saline containing 5% nonfat dry milk and then incubated with mouse anti-AR (441) monoclonal antibody (Santa Cruz Biotechnology, Santa Cruz, Calif.) or mouse anti-actin antibody (A5441; Sigma). After washing, membranes were incubated with a secondary horseradish peroxidase-conjugated goat anti-mouse IgG (Biomeda, Foster City, Calif.) and analyzed using Western Lightening Chemiluminescence Reagent Plus (Boston, Mass.) on a Kodak Image Station 4000MM (Rochester, N.Y.). Band intensities were determined using Kodak Molecular Imaging Software.

[7] = system: LNCaP prostate cancer cells; assay: CyQUANT cell proliferation assay, LNCaP; settings: 10 to 50 μM, 4 days
Method: as §3, §2

AR protein [8] = assay: Immunoblot analysis of AR protein, LNCaP; settings: 4 days
Method: as §4

Cc1c(C)c2c(c(C)c1O)CCC(C)(CCCC(C)CCCC(C)CCCC(C)C)O2 (racemic) [VE, dl-α-tocopherol, reference compound]
AR mRNA levels (qPCR) (AR mRNA [1]): did not affect
PC3 cell growth [2]: neither ATQ nor VE decreased the growth
LAPC4 cell growth (CyQUANT) [3]: modest, but significant, decrease; also recorded: decreased slightly; also recorded: much less effective
AR mRNA levels (qPCR) (AR mRNA [4]): did not affect
Androgen-induced (R1881) MMTV promoter luciferase activity [5]: significantly increased
Cell viability (LNCaP cells): did not affect
R1881-induced PSA release / PSA levels in medium (PSA): did not affect; also recorded: remained unchanged

CC1=C(C)C(=O)C(CC[C@](C)(O)CCC[C@H](C)CCC[C@H](C)CCCC(C)C)=C(C)C1=O [ATQ, α-tocopherylquinone]
reduction in AR protein levels (AR protein [6]; LAPC4, 25 μM, 4 days): 4 fold
AR protein levels (AR protein [6]; LAPC4, 4 days): decreased
LNCaP cell growth (relative growth, CyQUANT) [7]: dose-dependent decrease; also recorded: significantly decreased
decrease in AR mRNA levels (AR mRNA [1]; LAPC4, 30 μM, 4 days): 2 fold
AR mRNA levels (qPCR) (AR mRNA [1]): reduced levels
PC3 cell growth [2]: neither ATQ nor VE decreased the growth
LAPC4 cell growth (CyQUANT) [3]: dose-dependent decrease; also recorded: significantly decreased
decrease in AR mRNA levels (AR mRNA [4]; 30 μM): 2 fold
AR mRNA levels (qPCR) (AR mRNA [4]): reduced levels
Androgen-induced (R1881) MMTV promoter luciferase activity [5]: inhibit; also recorded: significantly reduced
Cell viability (LNCaP cells): significantly decreased
reduction in R1881-induced PSA release compared to untreated control cells (PSA; 10 μM): 50%
decrease in PSA release compared to untreated controls (PSA; 40 μM): 4 fold
R1881-induced PSA release / PSA levels in medium (PSA): significantly reduced; also recorded: inhibited
reduction in AR protein levels (AR protein [8]; 30 μM): 4 fold
AR protein levels (AR protein [8]): decreased
